Assay results published in patent US8192962B2, “Processes for detecting toxic substances” (Daikin Industries, Ltd., priority 2001, dated 2012).

Test system: Metabolism protein genes
Experiment: DNA chip mRNA expression in yeast, metabolism protein genes (Table 7)
Type: cell-based, Saccharomyces cerevisiae S288C
Outline: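 Expression change after 2 h toxicant exposure (growth-inhibiting, sub-lethal) of log-phase S. cerevisiae S288C at 25° C. Oligo-dT-purified mRNA was labeled with Cy3-dUTP or Cy5-dUTP and hybridized >12 h at 65° C. to a genome-wide chip; ratio of scanned fluorescence to control.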

## Oc1cc(Cl)c(Cl)cc1Cl [(6), 2,4,5-trichlorophenol]
Yeast gene YKL035W
  The level of expressed mRNA in the presence of chemical substance/The level of expressed mRNA in the absence of chemical substance: 1.2
Yeast gene YKL060C
  level of expressed mRNA in the presence/in the absence of chemical substance: 1.3
Yeast gene YKL091C
  The level of expressed mRNA in the presence of chemical substance/The level of expressed mRNA in the absence of chemical substance: 2.2
Yeast gene YKL104C
  The level of expressed mRNA in the presence of chemical substance/The level of expressed mRNA in the absence of chemical substance: 0.9
Yeast gene YKL148C
  level of expressed mRNA in the presence/in the absence of chemical substance: 0.5
Yeast gene YKL152C
  The level of expressed mRNA in the presence of chemical substance/The level of expressed mRNA in the absence of chemical substance: 1.6
Yeast gene YKL157W
  level of expressed mRNA in the presence/in the absence of chemical substance: 1.5
Yeast gene YKL213C
  The level of expressed mRNA in the presence of chemical substance/The level of expressed mRNA in the absence of chemical substance: 1.0
Yeast gene YKL215C
  The level of expressed mRNA in the presence of chemical substance/The level of expressed mRNA in the absence of chemical substance: 2.1
Yeast gene YKL218C
  The level of expressed mRNA in the presence of chemical substance/The level of expressed mRNA in the absence of chemical substance: 3.6
Yeast gene YKR034W
  level of expressed mRNA in the presence/in the absence of chemical substance: 0.9
Yeast gene YKR039W
  The level of expressed mRNA in the presence of chemical substance/The level of expressed mRNA in the absence of chemical substance: 2.8
Yeast gene YLL058W
  The level of expressed mRNA in the presence of chemical substance/The level of expressed mRNA in the absence of chemical substance: 1.4
Yeast gene YLR006C
  level of expressed mRNA in the presence/in the absence of chemical substance: 0.9
Yeast gene YLR044C
  level of expressed mRNA in the presence/in the absence of chemical substance: 1.5
Yeast gene YLR056W
  level of expressed mRNA in the presence/in the absence of chemical substance: 1.2
Yeast gene YLR058C
  level of expressed mRNA in the presence/in the absence of chemical substance: 0.9
Yeast gene YLR081W
  level of expressed mRNA in the presence/in the absence of chemical substance: 0.9
Yeast gene YLR089C
  level of expressed mRNA in the presence/in the absence of chemical substance: 1.5
Yeast gene YLR142W
  The level of expressed mRNA in the presence of chemical substance/The level of expressed mRNA in the absence of chemical substance: 3.1
Yeast gene YLR180W
  The level of expressed mRNA in the presence of chemical substance/The level of expressed mRNA in the absence of chemical substance: 1.2
Yeast gene YLR273C
  The level of expressed mRNA in the presence of chemical substance/The level of expressed mRNA in the absence of chemical substance: 1.2
Yeast gene YLR284C
  level of expressed mRNA in the presence/in the absence of chemical substance: 0.9
Yeast gene YLR299W
  The level of expressed mRNA in the presence of chemical substance/The level of expressed mRNA in the absence of chemical substance: 0.9
Yeast gene YLR300W
  The level of expressed mRNA in the presence of chemical substance/The level of expressed mRNA in the absence of chemical substance: 1.1
Yeast gene YLR304C
  level of expressed mRNA in the presence/in the absence of chemical substance: 1.9
Yeast gene YLR307W
  The level of expressed mRNA in the presence of chemical substance/The level of expressed mRNA in the absence of chemical substance: 1.2
Yeast gene YLR348C
  The level of expressed mRNA in the presence of chemical substance/The level of expressed mRNA in the absence of chemical substance: 1.9
Yeast gene YLR354C
  level of expressed mRNA in the presence/in the absence of chemical substance: 1.5
Yeast gene YLR372W
  level of expressed mRNA in the presence/in the absence of chemical substance: 0.5
Yeast gene YML022W
  level of expressed mRNA in the presence/in the absence of chemical substance: 0.8
Yeast gene YML054C
  The level of expressed mRNA in the presence of chemical substance/The level of expressed mRNA in the absence of chemical substance: 1.8
Yeast gene YML070W
  The level of expressed mRNA in the presence of chemical substance/The level of expressed mRNA in the absence of chemical substance: 2.2
Yeast gene YML100W
  The level of expressed mRNA in the presence of chemical substance/The level of expressed mRNA in the absence of chemical substance: 2.8
Yeast gene YML110C
  The level of expressed mRNA in the presence of chemical substance/The level of expressed mRNA in the absence of chemical substance: 2.6
Yeast gene YMR008C
  The level of expressed mRNA in the presence of chemical substance/The level of expressed mRNA in the absence of chemical substance: 1.7
Yeast gene YMR011W
  level of expressed mRNA in the presence/in the absence of chemical substance: 0.6
Yeast gene YMR015C
  level of expressed mRNA in the presence/in the absence of chemical substance: 1.3
Yeast gene YMR020W
  The level of expressed mRNA in the presence of chemical substance/The level of expressed mRNA in the absence of chemical substance: 1.6
Yeast gene YMR083W
  level of expressed mRNA in the presence/in the absence of chemical substance: 1.8
Yeast gene YMR105C
  The level of expressed mRNA in the presence of chemical substance/The level of expressed mRNA in the absence of chemical substance: 2.8
Yeast gene YMR189W
  The level of expressed mRNA in the presence of chemical substance/The level of expressed mRNA in the absence of chemical substance: 1.9
Yeast gene YMR205C
  level of expressed mRNA in the presence/in the absence of chemical substance: 1.2
Yeast gene YMR250W
  The level of expressed mRNA in the presence of chemical substance/The level of expressed mRNA in the absence of chemical substance: 4.5
Yeast gene YMR261C
  level of expressed mRNA in the presence/in the absence of chemical substance: 0.6
Yeast gene YMR271C
  The level of expressed mRNA in the presence of chemical substance/The level of expressed mRNA in the absence of chemical substance: 4.2
Yeast gene YMR272C
  The level of expressed mRNA in the presence of chemical substance/The level of expressed mRNA in the absence of chemical substance: 2.6
Yeast gene YMR296C
  The level of expressed mRNA in the presence of chemical substance/The level of expressed mRNA in the absence of chemical substance: 0.4
Yeast gene YMR323W
  level of expressed mRNA in the presence/in the absence of chemical substance: 0.4
Yeast gene YNL012W
  The level of expressed mRNA in the presence of chemical substance/The level of expressed mRNA in the absence of chemical substance: 1.7
Yeast gene YNL025C
  level of expressed mRNA in the presence/in the absence of chemical substance: 0.5
Yeast gene YNL037C
  The level of expressed mRNA in the presence of chemical substance/The level of expressed mRNA in the absence of chemical substance: 2.8
Yeast gene YNL045W
  The level of expressed mRNA in the presence of chemical substance/The level of expressed mRNA in the absence of chemical substance: 2.2
Yeast gene YNL104C
  The level of expressed mRNA in the presence of chemical substance/The level of expressed mRNA in the absence of chemical substance: 0.8
Yeast gene YNL106C
  The level of expressed mRNA in the presence of chemical substance/The level of expressed mRNA in the absence of chemical substance: 1.0
Yeast gene YNL169C
  The level of expressed mRNA in the presence of chemical substance/The level of expressed mRNA in the absence of chemical substance: 1.4
Yeast gene YNL192W
  level of expressed mRNA in the presence/in the absence of chemical substance: 0.6
Yeast gene YNL231C
  The level of expressed mRNA in the presence of chemical substance/The level of expressed mRNA in the absence of chemical substance: 1.8
Yeast gene YNL322C
  The level of expressed mRNA in the presence of chemical substance/The level of expressed mRNA in the absence of chemical substance: 1.1
Yeast gene YNL331C
  The level of expressed mRNA in the presence of chemical substance/The level of expressed mRNA in the absence of chemical substance: 1.8
Yeast gene YNL332W
  The level of expressed mRNA in the presence of chemical substance/The level of expressed mRNA in the absence of chemical substance: 1.1
Yeast gene YNR019W
  The level of expressed mRNA in the presence of chemical substance/The level of expressed mRNA in the absence of chemical substance: 1.3
Yeast gene YNR033W
  The level of expressed mRNA in the presence of chemical substance/The level of expressed mRNA in the absence of chemical substance: 1.6
Yeast gene YNR059W
  The level of expressed mRNA in the presence of chemical substance/The level of expressed mRNA in the absence of chemical substance: 0.8
Yeast gene YOL058W
  The level of expressed mRNA in the presence of chemical substance/The level of expressed mRNA in the absence of chemical substance: 0.8
Yeast gene YOL086C
  level of expressed mRNA in the presence/in the absence of chemical substance: 1.7
Yeast gene YOL108C
  level of expressed mRNA in the presence/in the absence of chemical substance: 0.9
Yeast gene YOL116W
  level of expressed mRNA in the presence/in the absence of chemical substance: 0.7
Yeast gene YOL126C
  The level of expressed mRNA in the presence of chemical substance/The level of expressed mRNA in the absence of chemical substance: 1.5
Yeast gene YOL143C
  The level of expressed mRNA in the presence of chemical substance/The level of expressed mRNA in the absence of chemical substance: 3.5
Yeast gene YOL153C
  The level of expressed mRNA in the presence of chemical substance/The level of expressed mRNA in the absence of chemical substance: 1.9
Yeast gene YOL156W
  level of expressed mRNA in the presence/in the absence of chemical substance: 1.2
Yeast gene YOL165C
  The level of expressed mRNA in the presence of chemical substance/The level of expressed mRNA in the absence of chemical substance: 1.7
Yeast gene YOR002W
  level of expressed mRNA in the presence/in the absence of chemical substance: 1.1
Yeast gene YOR085W
  level of expressed mRNA in the presence/in the absence of chemical substance: 0.6
Yeast gene YOR099W
  The level of expressed mRNA in the presence of chemical substance/The level of expressed mRNA in the absence of chemical substance: 0.9
Yeast gene YOR103C
  level of expressed mRNA in the presence/in the absence of chemical substance: 1.0
Yeast gene YOR108W
  level of expressed mRNA in the presence/in the absence of chemical substance: 1.6
Yeast gene YOR128C
  level of expressed mRNA in the presence/in the absence of chemical substance: 1.0
Yeast gene YOR130C
  The level of expressed mRNA in the presence of chemical substance/The level of expressed mRNA in the absence of chemical substance: 1.6
Yeast gene YOR142W
  level of expressed mRNA in the presence/in the absence of chemical substance: 1.6
Yeast gene YOR176W
  level of expressed mRNA in the presence/in the absence of chemical substance: 0.9
Yeast gene YOR178C
  level of expressed mRNA in the presence/in the absence of chemical substance: 2.7
Yeast gene YOR251C
  level of expressed mRNA in the presence/in the absence of chemical substance: 0.9
Yeast gene YOR336W
  The level of expressed mRNA in the presence of chemical substance/The level of expressed mRNA in the absence of chemical substance: 1.7
Yeast gene YOR347C
  The level of expressed mRNA in the presence of chemical substance/The level of expressed mRNA in the absence of chemical substance: 0.9
Yeast gene YOR348C
  level of expressed mRNA in the presence/in the absence of chemical substance: 0.7
Yeast gene YPL017C
  The level of expressed mRNA in the presence of chemical substance/The level of expressed mRNA in the absence of chemical substance: 1.5
Yeast gene YPL028W
  level of expressed mRNA in the presence/in the absence of chemical substance: 1.2
Yeast gene YPL057C
  level of expressed mRNA in the presence/in the absence of chemical substance: 0.6
Yeast gene YPL135W
  level of expressed mRNA in the presence/in the absence of chemical substance: 1.3
Yeast gene YPL148C
  level of expressed mRNA in the presence/in the absence of chemical substance: 0.6
Yeast gene YPR113W
  level of expressed mRNA in the presence/in the absence of chemical substance: 1.1
Yeast gene YPR160W
  The level of expressed mRNA in the presence of chemical substance/The level of expressed mRNA in the absence of chemical substance: 4.5
Yeast gene YPR165W
  level of expressed mRNA in the presence/in the absence of chemical substance: 1.8
Yeast gene YPR167C
  The level of expressed mRNA in the presence of chemical substance/The level of expressed mRNA in the absence of chemical substance: 2.6
Yeast gene YPR183W
  level of expressed mRNA in the presence/in the absence of chemical substance: 1.2
